# “And” between values parts separate entries of the source, which are not always exact repeats. Equal entries are not always repeated. Structures can show the parent of a compound that is named as a salt.
# Legend:
# [1] = test system: Mice (male Swiss-Webster); experiment: Analgesic efficacy in mouse model (electrical stimulation of abdominal skin, vocalization threshold); type: in vivo; design: key: 1 = analgesia; 0 = no analgesia; 10 = partial analgesia
# Method: Testing for analgesia was done by electrical stimulation of the skin directly overlying the abdomen at the site of injection using a current generator (model S48, Grass Instruments).
# Mice (male Swiss-Webster, 26±3 gr) were tested prior to injection to determine the vocalization threshold than were injected with encapsulation BUP liposomes than determine analgesic duration (G. J. Grant et al, pharmaceutical research, vol 18, no. 3, 336-343, 2001).
# In order to evaluate the effect of altering the volume and BUP concentration of the injection, in each group, three mice received 150 μL of the 2% formulation and 3 mice received 300 μL of a 1:1 diluted 2% formulation.
# In these Tables, an numeric score of “1” denotes full analgesia, a numeric score of “0” was given when there was no analgesic effect, and a numeric value of “10” when there was partial analgesia.
# As indicated above, the numerical score to the spreadsheet was introduced for the evaluation of the analgesic effect of various liposome preparations performance in vivo: For each time period (e.g. 4 hrs, 8 hrs etc) a numeric value of 1 was given if the anesthesia was complete; 10 or 0.5 was given when analgesia was partial (incomplete) and 0 for no anesthesia. The mean for each subgroup was calculated separately (i.e. 1% 300 μl, 2% 150 μg).
# mouse = experiment: Maximal tolerated dose of free BUP; type: in vivo
# [2] = individual mice, Bup conc 0.25%, volume 150 ul, 0.375 mg Bup
# [3] = individual mice, Bup conc 0.25%, volume 150 ul, 0.375 mg Bup, hydrochloride
# [4] = individual mice, Bup conc 0.25%, volume 300 ul, 0.75 mg Bup
# [5] = individual mice, Bup conc 0.25%, volume 300 ul, 0.75 mg Bup, hydrochloride
# [6] = individual mice, Bup conc 0.50%, volume 150 ul, 0.75 mg Bup
# [7] = individual mice, Bup conc 0.50%, volume 150 ul, 0.75 mg Bup, hydrochloride
# [8] = mice, 0.25%, 150 ul, 0.375 mg Bup
# [9] = mice, 0.25%, 150 ul, 0.375 mg Bup, hydrochloride
# [10] = mice, 0.25%, 300 ul, 0.75 mg Bup
# [11] = mice, 0.25%, 300 ul, 0.75 mg Bup, hydrochloride
# [12] = mice, 0.50%, 150 ul, 0.75 mg Bup
# [13] = mice, 0.50%, 150 ul, 0.75 mg Bup, hydrochloride
compound,measurement,setting,value
"CCCCN1CCCCC1C(=O)Nc1c(C)cccc1C (stereo not drawn) [Standard Bupivacaine, Bupivacaine hydrochloride]",Analgesic effect score at 15 min,[1]; [2],1
same,Analgesic effect score at 30 min,[1]; [2],1
same,Analgesic effect score at 45 min,[1]; [2],1
same,Analgesic effect score at 60 min,[1]; [3],0 (5×) and 1 (2×) and 10
same,Analgesic effect score at 75 min,[1]; [3],0 (7×) and 10
same,Analgesic effect score at 90 min,[1]; [2],0
same,Analgesic effect score at 15 min,[1]; [4],1
same,Analgesic effect score at 30 min,[1]; [4],1
same,Analgesic effect score at 45 min,[1]; [4],1
same,Analgesic effect score at 60 min,[1]; [4],1
same,Analgesic effect score at 75 min,[1]; [5],0 and 1 (7×)
same,Analgesic effect score at 90 min,[1]; [5],0 and 1 (5×) and 10 (2×)
same,Analgesic effect score at 105 min,[1]; [5],0 (5×) and 10 and 1 (2×)
same,Analgesic effect score at 120 min,"[1]; individual mice, Bup conc 0.25%, volume 300 ul, 0.75 mg Bup, 120 min, hydrochloride",0 (7×) and 10
same,Analgesic effect score at 135 min,"[1]; individual mice, Bup conc 0.25%, volume 300 ul, 0.75 mg Bup, 135 min",0
same,Analgesic effect score at 15 min,[1]; [6],1
same,Analgesic effect score at 30 min,[1]; [6],1
same,Analgesic effect score at 45 min,[1]; [6],1
same,Analgesic effect score at 60 min,[1]; [7],1 (7×) and 10
same,Analgesic effect score at 75 min,[1]; [7],1 (6×) and 0 and 10
same,Analgesic effect score at 90 min,[1]; [7],0 (4×) and 10 (2×) and 1 (2×)
same,Analgesic effect score at 105 min,[1]; [6],0
same,analgesia 15 min,[1]; [8],1
same,analgesia 30 min,[1]; [8],1
same,analgesia 45 min,[1]; [8],1
same,analgesia 60 min,[1]; [9],0 and 1 and 10
same,analgesia 75 min,[1]; [9],0 and 10
same,analgesia 90 min,[1]; [8],0
same,analgesia 15 min,[1]; [10],1
same,analgesia 30 min,[1]; [10],1
same,analgesia 45 min,[1]; [10],1
same,analgesia 60 min,[1]; [10],1
same,analgesia 75 min,[1]; [11],0 and 1
same,analgesia 90 min,[1]; [11],0 and 1 and 10
same,analgesia 105 min,[1]; [11],0 and 10 and 1
same,analgesia 120 min,"[1]; mice, 0.25%, 300 ul, 0.75 mg Bup, 120 min, hydrochloride",0 and 10
same,analgesia 135 min,"[1]; mice, 0.25%, 300 ul, 0.75 mg Bup, 135 min",0
same,analgesia 15 min,[1]; [12],1
same,analgesia 30 min,[1]; [12],1
same,analgesia 45 min,[1]; [12],1
same,analgesia 60 min,[1]; [13],1 and 10
same,analgesia 75 min,[1]; [13],1 and 0 and 10
same,analgesia 90 min,[1]; [13],0 and 10 and 1
same,analgesia 105 min,[1]; [12],0
same,"maximal tolerated dose, MTD",mouse,0.75 mg/mouse
